Measured values published in ChEMBL document CHEMBL3112394, “Identification of the 5,5-dioxo-7,8-dihydro-6H-thiopyrano[3,2-d]pyrimidine derivatives as highly selective PDE4B inhibitors” (Bioorg Med Chem Lett, 2014).

Experiments:
[1] = organism: Homo sapiens; assay: Selectivity ratio of IC50 for full-length human PDE4D2 to IC50 for full-length human PDE4B2
[2] = target: T1, 3',5'-cyclic-AMP phosphodiesterase 4D (Homo sapiens, UniProt Q08499); assay: Inhibition of full-length human PDE4D2 assessed as cAMP hydrolysis preincubated for 20 mins followed by cAMP addition measured after 30 mins
T1 sequence (Q08499 whole entry): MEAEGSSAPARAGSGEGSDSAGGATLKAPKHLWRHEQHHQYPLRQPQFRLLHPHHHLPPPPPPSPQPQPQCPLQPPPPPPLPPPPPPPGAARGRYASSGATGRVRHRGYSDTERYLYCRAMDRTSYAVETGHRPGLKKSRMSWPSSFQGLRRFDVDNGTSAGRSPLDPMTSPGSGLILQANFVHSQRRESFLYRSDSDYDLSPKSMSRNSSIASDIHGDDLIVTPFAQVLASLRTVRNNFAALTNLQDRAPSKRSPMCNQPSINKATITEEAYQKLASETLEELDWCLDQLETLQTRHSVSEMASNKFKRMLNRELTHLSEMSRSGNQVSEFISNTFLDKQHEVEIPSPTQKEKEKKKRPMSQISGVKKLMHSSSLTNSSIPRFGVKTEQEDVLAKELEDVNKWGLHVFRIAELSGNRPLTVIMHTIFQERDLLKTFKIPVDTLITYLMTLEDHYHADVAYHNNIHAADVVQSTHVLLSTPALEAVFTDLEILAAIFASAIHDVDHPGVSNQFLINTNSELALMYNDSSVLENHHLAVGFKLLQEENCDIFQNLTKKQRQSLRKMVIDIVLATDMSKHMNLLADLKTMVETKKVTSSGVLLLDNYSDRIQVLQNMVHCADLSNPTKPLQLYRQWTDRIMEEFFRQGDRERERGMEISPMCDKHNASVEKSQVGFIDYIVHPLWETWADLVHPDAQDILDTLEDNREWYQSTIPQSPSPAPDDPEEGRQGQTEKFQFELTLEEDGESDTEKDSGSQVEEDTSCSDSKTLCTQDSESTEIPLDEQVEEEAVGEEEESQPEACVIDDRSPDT

[3] = target: 3',5'-cyclic-AMP phosphodiesterase 4B (Homo sapiens, UniProt Q07343); assay: Inhibition of full-length human PDE4B2 assessed as cAMP hydrolysis preincubated for 20 mins followed by cAMP addition measured after 30 mins
Chain of 3',5'-cyclic-AMP phosphodiesterase 4B (Q07343 whole entry): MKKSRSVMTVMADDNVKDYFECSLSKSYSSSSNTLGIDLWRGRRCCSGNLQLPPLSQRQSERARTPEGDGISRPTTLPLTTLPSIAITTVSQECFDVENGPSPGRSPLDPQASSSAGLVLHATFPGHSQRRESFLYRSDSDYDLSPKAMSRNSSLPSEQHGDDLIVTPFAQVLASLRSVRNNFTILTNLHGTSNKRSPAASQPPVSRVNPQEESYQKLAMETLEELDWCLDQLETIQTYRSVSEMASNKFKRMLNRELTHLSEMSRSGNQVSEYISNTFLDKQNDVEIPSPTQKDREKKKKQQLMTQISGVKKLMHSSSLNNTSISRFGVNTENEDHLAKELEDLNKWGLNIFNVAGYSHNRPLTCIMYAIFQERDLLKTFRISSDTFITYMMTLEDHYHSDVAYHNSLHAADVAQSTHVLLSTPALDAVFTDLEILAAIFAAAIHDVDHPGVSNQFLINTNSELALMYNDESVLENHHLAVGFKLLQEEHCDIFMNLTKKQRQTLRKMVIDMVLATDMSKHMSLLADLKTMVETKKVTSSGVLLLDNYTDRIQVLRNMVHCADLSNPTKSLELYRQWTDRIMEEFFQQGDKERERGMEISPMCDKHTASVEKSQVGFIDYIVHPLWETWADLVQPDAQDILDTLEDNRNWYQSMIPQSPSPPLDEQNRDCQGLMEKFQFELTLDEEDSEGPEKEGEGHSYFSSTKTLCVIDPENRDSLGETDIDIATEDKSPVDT

[4] = organism: Homo sapiens; assay: Selectivity ratio of IC50 for recombinant human PDE4D (78 to 508) to IC50 for recombinant human PDE4B (152 to 564)
[5] = target: T1, 3',5'-cyclic-AMP phosphodiesterase 4D; assay: Inhibition of recombinant human PDE4D (78 to 508)
[6] = Antiinflammatory activity in Balb/c mouse splenocytes assessed as inhibition of LPS-induced TNF-alpha production after 18 to 24 hrs; assay type: functional, cell-based; conditions: Splenocyte
[7] = Terminal half life in mouse at 10 mg/kg, po; assay type: ADME, organism-based; design: dose 10 mg/kg, route oral; conditions: in vivo, read-out: beta t1/2 (converted)
[8] = Cmax in mouse at 10 mg/kg, po; assay type: ADME, organism-based; design: dose 10 mg/kg, route oral; conditions: in vivo
[9] = Permeability of the compound at 50 uM at pH 7.4 after 4 hrs by PAMPA; assay type: ADME; conditions: read-out: permeability
[10] = AUC in mouse at 10 mg/kg, po; assay type: ADME, organism-based; design: dose 10 mg/kg, route oral; conditions: plasma
[11] = 1-octanol-phosphate buffered saline distribution coefficient, log D of the compound at 200 uM at pH 7.4 after 30 mins by shake flask method; assay type: physicochemical

| Ratio IC50 [1] | IC50 [2] | IC50 [3] | SMILES | also measured |
| --- | --- | --- | --- | --- |
| 53 | 7400 nM | 140 nM | COc1ccc(-c2nc3c(c(Nc4ccc(CC(=O)O)cc4)n2)SCCC3)cn1 |  |
| 57 | 560 nM | 9.9 nM | COc1ccc(-c2nc3c(c(Nc4cc(F)c(CC(=O)O)cc4Cl)n2)S(=O)(=O)CCC3)cc1F |  |
| 3.7 | 550 nM | 150 nM | O=C(O)Cc1ccc(Nc2nc(-c3ccccc3)nc3c2S(=O)(=O)CCC3)cc1 | Ratio IC50 [4]: 112; IC50 [5]: 2800 nM |
| 48 | 400 nM | 8.3 nM | O=C(O)Cc1ccc(Nc2nc(-c3cc4ccccc4s3)nc3c2S(=O)(=O)CCC3)cc1 |  |
| 55 | 2100 nM | 38 nM | CN(C)c1ccc(-c2nc3c(c(Nc4ccc(CC(=O)O)cc4)n2)S(=O)(=O)CCC3)cc1 |  |
| 3.9 | 3400 nM | 880 nM | O=C(O)Cc1ccc(Nc2nc(-c3ccccc3F)nc3c2SCCC3)cc1 |  |
| 16 | 2200 nM | 140 nM | COc1ccc(-c2nc3c(c(Nc4ccc(CC(=O)O)cc4)n2)SCCC3)c(F)c1F |  |
| 21 | 790 nM | 38 nM | O=C(O)Cc1ccc(Nc2nc(-c3ccc(-c4ccccc4)cc3)nc3c2S(=O)(=O)CCC3)cc1 |  |
| 158 | 600 nM | 3.8 nM | O=C(O)Cc1ccc(Nc2nc(-c3cc4ccccc4s3)nc3c2S(=O)(=O)CCC3)cc1F | IC50 [6]: 11 nM |
| 6.2 | 1300 nM | 210 nM | O=C(O)Cc1ccc(Nc2nc(-c3ccccc3)nc3c2SCCC3)cc1 | Ratio IC50 [4]: 45; IC50 [5]: 1300 nM |
| 11 | 1600 nM | 140 nM | CN(C)c1ccc(-c2nc3c(c(Nc4ccc(CC(=O)O)cc4)n2)SCCC3)cn1 |  |
| 21 | 1200 nM | 56 nM | CN(C)c1ccc(-c2nc3c(c(Nc4ccc(CC(=O)O)cc4)n2)S(=O)(=O)CCC3)cn1 |  |
| 21 | 790 nM | 38 nM | CN(C)c1ccc(-c2nc3c(c(Nc4ccc(CC(=O)O)cc4)n2)SCCC3)cc1 |  |
| 173 | 1300 nM | 7.5 nM | COc1ccc(-c2nc3c(c(Nc4ccc(CC(=O)O)c(F)c4)n2)S(=O)(=O)CCC3)cc1 | IC50 [6]: 96 nM |
| 81 | 1300 nM | 16 nM | COc1ccc(-c2nc3c(c(Nc4cc(F)c(CC(=O)O)cc4F)n2)S(=O)(=O)CCC3)cc1F |  |
| 20 | 1300 nM | 64 nM | COc1ccc(-c2nc3c(c(Nc4ccc(CC(=O)O)c(Cl)c4)n2)S(=O)(=O)CCC3)cc1F |  |
| 25 | 280 nM | 11 nM | COc1ccc(-c2nc3c(c(Nc4ccc(CC(=O)O)cc4)n2)SCCC3)cc1 |  |
| 2.6 | 180 nM | 70 nM | CCCCNC(=O)Cc1ccc(Nc2nc(-c3ccccc3)nc3c2S(=O)(=O)CCC3)cc1 | Ratio IC50 [4]: 12; IC50 [5]: 260 nM |
| 112 | 580 nM | 5.2 nM | COc1ccc(-c2nc3c(c(Nc4cc(F)c(CC(=O)O)c(F)c4)n2)S(=O)(=O)CCC3)cc1F |  |
| 12 | 600 nM | 49 nM | COc1ccc(-c2nc3c(c(Nc4cc(Cl)c(CC(=O)O)cc4Cl)n2)S(=O)(=O)CCC3)cc1F |  |
| 433 | 1300 nM | 3 nM | COc1ccc(-c2nc3c(c(Nc4ccc(CC(=O)O)c(F)c4)n2)S(=O)(=O)CCC3)cc1Cl | IC50 [6]: 11 nM |

| Ratio IC50 [1] | IC50 [2] | IC50 [3] | SMILES | also measured |
| --- | --- | --- | --- | --- |
| 31 | 440 nM | 14 nM | O=C(O)Cc1ccc(Nc2nc(-c3ccc4c(F)cccc4c3)nc3c2S(=O)(=O)CCC3)cc1 |  |
| 29 | 1000 nM | 34 nM | CC(=O)c1ccc(-c2nc3c(c(Nc4ccc(CC(=O)O)cc4)n2)SCCC3)cc1 |  |
| 12 | 680 nM | 57 nM | O=C(O)Cc1ccc(Nc2nc(-c3cccc(F)c3)nc3c2SCCC3)cc1 |  |
| 100 | 1300 nM | 13 nM | COc1ccc(-c2nc3c(c(Nc4ccc(CC(=O)O)cc4)n2)S(=O)(=O)CCC3)cc1Cl |  |
| 171 | 1400 nM | 8.2 nM | COc1ccc(-c2nc3c(c(Nc4ccc(CC(=O)O)c(F)c4)n2)S(=O)(=O)CCC3)c(F)c1F | IC50 [6]: 131 nM |
| 137 | 810 nM | 5.9 nM | O=C(O)Cc1ccc(Nc2nc(-c3ccc4ccccc4c3)nc3c2S(=O)(=O)CCC3)cc1F | IC50 [6]: 44 nM |
| 55 | 1100 nM | 20 nM | O=C(O)Cc1ccc(Nc2nc(-c3cc4ccccc4o3)nc3c2S(=O)(=O)CCC3)cc1 |  |
| 34 | 1500 nM | 44 nM | COc1ccc(-c2nc3c(c(Nc4ccc(CC(=O)O)cc4)n2)S(=O)(=O)CCC3)cc1 |  |
| 6.1 | 430 nM | 71 nM | COc1ccc(-c2nc3c(c(Nc4ccc(CC(=O)O)cc4)n2)SCCC3)cc1Cl |  |
| 86 | 860 nM | 10 nM | CC(=O)c1ccc(-c2nc3c(c(Nc4ccc(CC(=O)O)cc4)n2)S(=O)(=O)CCC3)cc1 |  |
| 9.7 | 290 nM | 30 nM | N#Cc1ccc(-c2nc3c(c(Nc4ccc(CC(=O)O)cc4)n2)SCCC3)cc1 |  |
| 27 | 520 nM | 19 nM | O=C(O)Cc1ccc(Nc2nc(-c3ccc4ccccc4c3)nc3c2S(=O)(=O)CCC3)cc1 |  |
| 135 | 620 nM | 4.6 nM | COc1ccc(-c2nc3c(c(Nc4ccc(CC(=O)O)c(F)c4)n2)S(=O)(=O)CCC3)cc1F | half-life [7]: 2 h; Cmax [8]: 1700 ng/mL; Papp at 4 h, 50 µM [9]: 14.3 ×10⁻⁶ cm/s; AUC [10]: 2770 ng·h/mL; logD at 0.5 h, 200 µM [11]: 0.8; IC50 [6]: 18 nM |
| 15 | 1800 nM | 120 nM | COc1cccc(-c2nc3c(c(Nc4ccc(CC(=O)O)cc4)n2)SCCC3)c1 |  |
| 8.3 | 1000 nM | 120 nM | O=C(O)Cc1ccc(Nc2nc(-c3ccc(F)cc3)nc3c2SCCC3)cc1 |  |
| 74 | 3400 nM | 46 nM | COc1ccc(-c2nc3c(c(Nc4ccc(CC(=O)O)cc4)n2)S(=O)(=O)CCC3)c(F)c1F |  |
| 15 | 3800 nM | 250 nM | COc1ccc(-c2nc3c(c(Nc4ccc(CC(=O)O)cc4)n2)S(=O)(=O)CCC3)cn1 |  |
| 9.7 | 290 nM | 30 nM | COc1cccc2cc(-c3nc4c(c(Nc5ccc(CC(=O)O)cc5)n3)S(=O)(=O)CCC4)ccc12 |  |
| 3.8 | 300 nM | 78 nM | COc1ccc(-c2nc3c(c(Nc4ccc(CC(=O)NCC(C)(C)C)cc4)n2)S(=O)(=O)CCC3)cc1F |  |
| 100 | 1000 nM | 10 nM | COc1ccc(-c2nc3c(c(Nc4ccc(CC(=O)O)cc4)n2)S(=O)(=O)CCC3)cc1F |  |
| 3.5 | 420 nM | 120 nM | O=C(O)Cc1ccc(Nc2nc(-c3ccc(Cl)cc3)nc3c2SCCC3)cc1 |  |
